Source: patent publication US20150190416A1, “FILAGGRIN PRODUCTION PROMOTER, THERAPEUTIC AGENT FOR DISEASES ASSOCIATED WITH REDUCTION IN PRODUCTION OF FILAGGRIN, AND METHOD FOR SCREENING FOR SAID THERAPEUTIC AGENT” (KYOTO UNIVERSITY, priority 2012, published 2015)

How the values were obtained:
GPR142 = experiment: FLG mRNA and GPR142 mRNA in GPR142-overexpressing NHEK cells (Example 7); type: cell-based, human; conditions: 10 nM, 1 day
Protocol: In this example, the FLG mRNA expression-inducing effect of Compound 1 in GPR142-overexpressing NHEK cells was confirmed.
1) 5×10^4 cells/well of NHEK cells (Invitrogen) were plated on a 24-well plate. Then, a culture medium containing a medium for proliferating normal human epidermal keratinocytes (HuMedia-KG2, KURABO INDUSTRIES LTD.) supplemented with hEGF (0.1 ng/ml), insulin (10 μg/ml), hydrocortisone (0.5 μg/ml), gentamycin (50 μg/ml), amphotericin B (50 ng/ml), and bovine brain pituitary extract (BPE) (0.4%, v/v) was added to the plate, and the cells were cultured under the conditions of 37° C. and 5% CO2.
2) A GPR142pCXN mammalian expression vector was prepared by incorporating a human GPR142 gene coding region containing the base sequence set forth in SEQ ID NO: 2 into the EcoRI restriction site of the cloning site in a mammalian expression vector pCXN (Gene 108: 193-199 (1991)). […]
5) An extraction reagent (TRIzol™, Invitrogen) was used, and according to the manufacturer's protocol, total RNA was extracted from each of cells treated with the medicament. […] Real-time PCR was conducted by using the same primers as those for GPR142, FLG, and GAPDH used in Example 4 and SYBR™ PremixEx Taq (Takara) with a CFX96 real-time PCR instrument according to the manufacturer's protocol, and the amounts of GPR142 mRNA and FLG mRNA were measured. […]

FLG monomer = FLG monomer in FLG gene mutant mice (flaky tail mice), Western blotting (Example 13); type: in vivo, mouse; conditions: 1 μM 10 μl/ear intradermally, ear epidermis after 8 days
Protocol: In this example, the expression-increasing effect of Compound 1 (N-quinolylbenzamide derivative) on FLG monomer was confirmed by using FLG gene homozygous or heterozygous mutant mouse (Jackson Laboratory, flaky tail mice). The expression of the FLG protein was confirmed by Western blotting.
1) Compound 1 (1 μM) dissolved in ultrapure water (milliQ, EMD Millipore) was injected intradermally to left and right ears of an FLG homozygous or heterozygous mutant mouse (10 μl/ear). As a control, ultrapure water (milliQ, EMD Millipore) was injected intradermally in the same manner.
2) After 3 days, Compound 1 or ultrapure water was further injected intradermally in the same manner.
3) After 8 days, ears of each mouse were cut under anesthesia, the skin of the cut ear was peeled off by pinching cartilage, and the skin on the dermal side was soaked in PBS containing 20 mM EDTA at 37° C. for 30 minutes. Next, the epidermis of the ear was peeled off and […] of Lysis buffer (0.1 M Tris-HCl (pH 9.0), 6 M Urea, 1% 2-mercapto-ethanol, 1% SDS, 1 mM EDTA, and Protease inhibitor cocktail) were added to the epidermis, and the epidermis was homogenized with an electrically powered pestle in the same manner as in the step 4) of Example 11 to prepare a sample. The sample was subjected to electrophoresis, and then to western blotting to confirm the expression of FLG monomer. […]

FLG protein = FLG protein in cultured human normal skin, immunohistostaining (Example 12); type: cell-based; conditions: 1 μM, 4 days
From the text: In this example, the expression-increasing effect of Compound 1 (N-quinolylbenzamide derivative) on FLG monomer was examined by using human normal skin. The expression of the FLG monomer was confirmed by an immunohistostaining method using an anti-human FLG antibody. The medium used was a medium for proliferating normal human epidermal keratinocytes (HuMedia-KG2, KURABO INDUSTRIES LTD.). It should be noted that, in this example, surplus portions of normal skin derived from extirpation of portions of a skin disease were used under the agreement by the donor through Ethics Committee of Kyoto University.
1) Human normal skin (with a size of 5×5×5 mm) was put on a transwell of a 24-well transwell plate, 500 μl of the medium, to which Compound 1 (1 μM) or a control (vehicle (DMSO)) was added, were added to the lower part, and the skin was cultured. After culture for 2 days, the medium was exchanged for the same medium.
2) After 4 days, the cultured skin was collected, and was soaked in 10% formalin overnight, and thereafter, a paraffin section having a thickness of […] was prepared according to a conventional method. […]

In the case of `CCc1ccc(OCc2ccccc2C(=O)Nc2ccc3nc(C)cc(N)c3c2)cc1.Cl` [Compound 1, N-(4-Amino-2-methyl-6-quinolyl)-2-[(4-ethylphenoxy)methyl]benzamide hydrochloride], the “FLG mRNA expression (GAPDH ratio)” value (GPR142; GPR142-overexpressing NHEK cells) is reported as “increased FLG mRNA expression”, the “expression amount of GPR142 mRNA, increase as compared to the control” value (GPR142; NHEK cells) is reported as “about 2.2 times” and the “production of FLG monomer” value (FLG monomer; FLG heterozygous mutant mouse) is reported as “production of the FLG monomer caused by Compound 1 was confirmed”. The “production of FLG monomer” value (FLG monomer; FLG homozygous mutant mouse) was “production of the FLG monomer was not observed”, the “development of the stratum corneum” value (FLG protein) was “greater than that of the control” and the “FLG protein within the skin” value (FLG protein; immunohistostaining) was “markedly increased”.
